Test results from patent US10478501B2, “Method of treating disorders using a pharmaceutical composition of oligopeptides” (Merck Patent GmbH, priority 2011, dated 2019).

Tests used:
[1] = system: H460; test: Cellular radiosensitivity by clonogenic cell survival assay, H460; format: cell-based, human; settings: combined with γ-radiation, given 1 h before and continued 23 h after irradiation
Experimental: (§1) Methods: Three non-small cell lung carcinoma lines (NSCLCs) (H460, A549 and H1299) and three head and neck squamous cell carcinoma lines (HNSCCs) (FaDu, SCC-15 and SCC-25) cell lines were used for in vitro experiments. Of these, H460 and FaDu were used for in vivo testing when grown as xenografts in nude mice. The effects of cilengitide (1-50 μg/ml, 24 h) on in vitro cell viability was determined by MTS assay and on cellular radiosensitivity by clonogenic cell survival assay after exposing the cells to graded single doses of γ-radiation with or without cilengitide (given 1 h before and continued for 23 h after irradiation). In vivo effect of cilengitide on radioresponse of xenografts was assessed by tumor growth delay. When tumor xenografts reached 7 mm in diameter cilengitide treatment (30 or 60 mg/d/5 or 10 days) was initiated followed by a single dose of 15 Gy local radiation (using ^137Cs γ-ray source), when the tumors reached 8 mm.

[2] = cited from earlier work
[3] = system: HNSCC lines (FaDu, SCC-15 and SCC-25); test: Cellular radiosensitivity by clonogenic cell survival assay, HNSCC lines; format: cell-based, human; settings: combined with γ-radiation
Experimental: as §1

[4] = system: H460 (NSCLC) tumor xenografts; test: Tumor growth delay of H460 xenografts with radiation; format: in vivo, nude mice
Experimental: as §1

[5] = system: MDA-MB-231 breast cancer bone metastases; test: Experimental breast cancer bone metastases in nude rats: histology / immunofluorescence of tumor vessels; format: in vivo, nude rats (RNU strain); settings: after 4 weeks treatment (control rats 8.8 μm; p<0.01)
Experimental: Nude rats (RNU strain) are obtained from Harlan-Winkelmann GmbH (Borchen, Germany) at the age of six weeks and housed in a specific pathogen-free environment in a mini barrier system of the central animal facility. Animals are kept under controlled conditions (21±2° C. room temperature, 60% humidity, 12 h light-dark rhythm) and offered autoclaved food and water ad libitum. Sub-confluent MDAMB-231 cells are harvested using 0.05% Trypsin-EDTA (Gibco®; Invitrogen, Karlsruhe, Germany) counted on a Neubauer's chamber and resuspended in RPMI-1640 to a final concentration of 10^5 cells in 200 μl. Rats are anesthetized using a mixture of nitrous oxide (1 l/min), oxygen (0.5 l/min) and isoflurane (1.5 vol. %). Arterial branches of the right hind leg are dissected and 10^5 cells injected into the superficial epigastric artery as described previously.^28 Bone metastases established and are observed exclusively in the femur, tibia and fibula of the right hind leg. […]
At the end of the observation period lower limbs of each animal are amputated and muscular tissue removed. […] Mean positive area fractions of SMA and collagen IV (in percent) as well as mean vessel diameters (in μm) are determined from 4 representative animals of each group analyzing 10 fields of view chosen randomly from each rat using Analysis Software (cell^F; Olympus Soft Imaging Solutions, Münster, Germany). […]

[6] = system: 4T1 mouse breast tumour cells; test: Study 006: 4T1 survival model; format: in vivo, female BALB/c mice; settings: 300 mg/kg daily s.c. as Composition according to Example 18; mastectomy 11 days post-inoculation
Experimental: 4T1 mouse breast tumour cells were orthotopically inoculated into the fourth mammary fat pad of female BALB/c mice. Treatment started seven days post-inoculation (Day 0), when the mice were randomised, based on tumour size. Animals received treatment with either Vehicle Control (Placebo), EMD 121974 (75, 150 or 300 mg/kg as a Composition according to Example 18), or Taxol® (8 mg/kg). The Vehicle Control and EMD 121974 were administered daily by subcutaneous injection. Taxol® was administered three times weekly by intravenous injection. To assess the survival of tumor bearing animals a mastectomy was performed 11 days post-inoculation (4 days after treatment start). Animals were monitored daily for clinical symptoms and were culled if body weight loss in any animal exceeded 15% of initial weight, the animal was culled or disease progression was observed (e.g. severe breathing difficulties). Body weight measurements were made three times per week.

[7] = system: H1299; test: In vitro cell viability by MTS assay, H1299; format: cell-based, human; settings: 5 μg/ml, 24 h
Experimental: as §1

[8] = system: SCC-15; test: In vitro cell viability by MTS assay, SCC-15; format: cell-based, human; settings: 5 μg/ml, 24 h
Experimental: as §1

CC(C)[C@H]1C(=O)N[C@@H](CCCN=C(N)N)C(=O)NCC(=O)N[C@@H](CC(=O)O)C(=O)N[C@H](Cc2ccccc2)C(=O)N1C [Cilengitide, cyclo-(Arg-Gly-Asp-DPhe-NMeVal)]
radiosensitivity enhancement factor [1]: 1.35
MTD in humans [2]: no known MTD
effect on radiosensitivity of HNSCC lines [3]: only an additive effect
enhancement factor of tumor radioresponse (tumor growth delay) ([4]; with single dose of 15 Gy local radiation): 1.7
antitumor activity as a single agent (tumor growth delay) ([4]; without radiation): no antitumor activity
mean vessel diameter in bone metastases [5]: 6.6 μm
survival of tumor bearing animals [6]: comparable survival as Taxol
in vitro viability [7]: 27.8±4.2%
in vitro viability [8]: 71.4±2.2%
